{"source": "a melting point compilation (Tetko et al.; mined from patent text by program, amines drawn as free bases though some values may be those of a salt)"}
{"units": {"melting point": "°C"}}
{"smiles": "CC(C)(C)c1ccccc1N1CCN(C(=O)c2ccc(F)cc2)CC1", "melting point": "137 to 139"}
{"smiles": "Nc1cc(C(=O)c2ccccc2)ccc1Cl", "melting point": 91.9}
{"smiles": "COC(=O)/C=C/c1ccc(N)nc1", "melting point": "173 to 175"}
{"smiles": "COc1cc(C2C3=C(COC3=O)Nc3ccc4nn[nH]c4c32)cc(OC)c1OC", "note": "(stereo unspecified)", "melting point": "324 to 325"}
{"smiles": "COc1cccc(NC(C)=O)c1C(=O)NC1CCN(C(C)CC(C(=O)N(C)C)(c2ccccc2)c2ccccc2)CC1O", "note": "(stereo unspecified)", "melting point": 146}
{"smiles": "O=C(O)CCCCCOc1cc(-c2ccccc2)cc(-c2ccccc2)c1", "melting point": 104}
{"smiles": "Nc1nc(-c2nn(Cc3ccccc3F)c3ncccc23)nc(N)c1Cc1ccccc1", "melting point": 193}
{"smiles": "Cc1cccc2c1C=Cc1ccccc1C2O", "note": "(stereo unspecified)", "melting point": "114 to 116"}
{"smiles": "Cc1cccc(CC2CCN(C(=O)C(=O)Nc3ccc4[nH]c(=O)oc4c3)CC2)c1", "melting point": "204 to 208"}
{"smiles": "CCCC12CCC(=O)C=C1c1c(cc(CC(=O)O)c(Cl)c1Cl)C2", "note": "(stereo unspecified)", "melting point": "206 to 208"}
{"smiles": "COC(=O)Oc1c(C(=O)c2ccc(Cl)cc2Cl)c(C)nn1C", "melting point": "86 to 88"}
{"smiles": "CCCC1Cc2c(c(C)c(C)c3oc(C(=O)O)cc23)C1=O", "note": "(stereo unspecified)", "melting point": 287}
{"smiles": "CCCCc1cc(C(=O)O)c(=O)n(CCCC)c1C", "melting point": "106 to 108"}
{"smiles": "COC(=O)c1ccc(OCCCc2ccccc2)cc1O", "melting point": "101 to 102"}
{"smiles": "Nc1ccc(N2CCN(c3ccncc3)CC2)cc1", "melting point": "204 to 208"}
{"smiles": "CCn1c2ccccc2c2c(N)c(C(=O)OC)c(C)nc21", "melting point": "108 to 110"}
{"smiles": "O=C(c1ccc2c(c1)Cc1ccccc1-2)N1Cc2cccn2Cc2ccccc21", "melting point": "202 to 204"}
{"smiles": "CC(C)(OCc1nn(C2CCCc3ccccc32)c2ccccc12)C(=O)O", "note": "(stereo unspecified)", "melting point": "132 to 134"}
{"smiles": "O=c1c2ccccc2nnn1CCN1CCC(c2c[nH]c3ccccc23)CC1", "melting point": 171}
{"smiles": "CCC1C(=O)Oc2c(Oc3ccccc3C)cccc21", "note": "(stereo unspecified)", "melting point": "44 to 45"}
{"smiles": "COc1ccc2cc(-c3csc(Cc4c(Cl)cccc4Cl)n3)ccc2c1", "melting point": "136 to 138"}
{"smiles": "CCS(=O)(=O)C(=CNc1ccc(Cl)cc1)S(=O)(=O)CC", "melting point": "173 to 175"}
{"smiles": "O=C(O)c1ccc2c(c1)OCC(=O)N2Cc1ccccc1", "melting point": 230}
{"smiles": "CCCn1nc(SC2CCC(CC(=O)O)CC2)c(C(=O)O)c1Cc1cc2c(cc1Cl)OCO2", "note": "(stereo unspecified)", "melting point": 178}
{"smiles": "O=c1ccc(C(c2ccccc2)c2ccccc2)n[nH]1", "melting point": "161 to 162"}
{"smiles": "CN1C(=O)CC(=O)N(c2ccccc2)c2ccccc21", "melting point": "144 to 146"}
{"smiles": "N#Cc1ccc(Nn2cnnc2)cc1-c1ccco1", "melting point": "217 to 218"}
{"smiles": "CC(NCC(O)c1cc(Cl)c(N)c(Cl)c1)C1CCCCC1", "note": "(stereo unspecified)", "melting point": "106 to 108"}
{"smiles": "COc1ccc(Nc2nc(NC3CCNCC3)nc(N(C)N3CCCCCC3)n2)cc1Cl", "melting point": 81}
{"smiles": "CC(=O)Nc1cc2cc(N)ccc2oc1=O", "melting point": "250 to 252"}
{"smiles": "CC1=C(c2ccccc2)C(=O)N(C(C)(C)C(=O)Cc2cc(F)cc(F)c2)CO1", "melting point": "76.5 to 77.5"}
{"smiles": "CCCCCCCCCCCCCCCCCCOc1cc(OCCCCCCc2cccc(O)c2O)cc(C(=O)O)c1", "melting point": "92 to 94"}
{"smiles": "CCOC(=O)c1c2ccc(CC(=O)NOCCN3CCCCC3)ccc-2c(C(=O)OCC)c1N", "melting point": "163 to 165"}
{"smiles": "O=C(O)C1=Cc2c(F)cccc21", "melting point": "81 to 83"}
{"smiles": "CC(C)(C)c1cc(CCc2ccccc2NC(=O)N2CCN(Cc3ccc4c(c3)OCO4)CC2)cc(C(C)(C)C)c1O", "melting point": "149 to 151"}
{"smiles": "O=C(c1cc(=O)c2cc(O)ccc2[nH]1)N1CCC(O)(Cc2ccccc2)CC1", "melting point": 178}
{"smiles": "CC1=CC(O)C(OC(=O)c2nc[nH]c2C)C(C)(C)CC1=O", "note": "(stereo unspecified)", "melting point": "201 to 202"}
{"smiles": "COc1cc2c(cc1Br)-c1c(-c3cncs3)c3c(n1CC2)C(=O)N(C(C)(C)C)CCOC3", "melting point": "219 to 220"}
{"smiles": "CCOC(=O)c1cc2cc(C)c(C(F)(F)F)cc2[nH]1", "melting point": "176 to 178"}
{"smiles": "CC1(C)Oc2ccc(C#N)cc2C(NC(=O)Nc2cccc(-c3ncco3)c2)C1O", "note": "(stereo unspecified)", "melting point": "130 to 135"}
{"smiles": "CS(=O)(=O)OCCc1ccc(N2CCCC2=O)cc1", "melting point": 94}
{"smiles": "O=C(O)c1ccccc1-c1nnc(-c2ccc(C(F)(F)F)cc2)s1", "melting point": "> 300"}
{"smiles": "Cc1ccc(Nc2cccc(O)c2)cc1", "melting point": "86 to 88"}
{"smiles": "CC(CCCl)C(=O)Nc1nnc(C(C)(C)C)s1", "note": "(stereo unspecified)", "melting point": "124 to 126"}
{"smiles": "CCC(N(C)C)n1cc(C(=O)CN2CCCCC2)cc1C(=O)c1ccc(Cl)cc1", "note": "(stereo unspecified)", "melting point": "138 to 141"}
{"smiles": "CC(C)(C)c1csc(-c2nc(Cl)c(Cl)[nH]2)n1", "melting point": "157 to 158"}
{"smiles": "C=CCc1cc(OCCOC)ccc1OCC1(O)CN2CCC1CC2", "note": "(stereo unspecified)", "melting point": "58 to 60"}
{"smiles": "CCN1CCN(CCCOc2cc3ncc(C#N)c(Nc4ccc(Sc5nccn5C)c(Cl)c4)c3cc2OCCOC)CC1", "melting point": "188 to 190"}
{"smiles": "NC(=S)c1ccc(C(=O)NCc2ccc(N3CC(C(=O)O)OC3=O)cc2)cc1", "note": "(stereo unspecified)", "melting point": "105 to 110"}
{"smiles": "CC(=O)c1cnc2onc(C)c2c1O", "melting point": 162}
{"smiles": "Cc1cc(C(O)(C=Cc2ccc(Cl)cc2)C(F)(F)F)ccc1NC(=O)c1cccc(I)c1C(=O)NC(C)C", "note": "(stereo unspecified)", "melting point": "65 to 75"}
